In PubChem BioAssay AID2060902 (Molecular Pharmacology Branch, DTP, NCI, 2025):

System: 485368-065-R3-J5-PDC spheroids with HUVEC/MSC, viability
Assay: Anticancer human tumor 485368-065-R3-J5-PDC patient-derived pancreatic carcinoma cell line growth inhibition [RAS]
Conditions: for IC50: curve of first compound; for viability, T/C: stronger effect = lower value; active means viability on the fitted dose curve at most 10% of control; inactive means the rest
In short: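 Multi-cell-type spheroids: tumor cells plus HUVEC endothelial cells and mesenchymal stem cells. RAS-pathway inhibitors were combined with targeted agents, each dosed in half-log steps down from clinical Cmax, or from 10 microM when Cmax was unknown.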
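Further: spheroids exposed to agents for seven days before readout.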

CCc1c2c(nc3ccc(O)cc13)-c1cc3c(c(=O)n1C2)COC(=O)[C@]3(O)CC + C#Cc1c(F)ccc2cc(O)cc(-c3ncc4c(N5CC6CCC(C5)N6)nc(OCC56CCCN5CC(F)C6)nc4c3F)c12
2.01 nM: IC50 (second compound 0.0316 µM)
active: viability, T/C (second compound 0.0316 µM, first compound 0.03 µM) 7.01% | viability, T/C (second compound 0.0316 µM, first compound 0.0949 µM) 5.19% | viability, T/C (second compound 0.0316 µM, first compound 0.3 µM) 2.88% | viability, T/C (second compound 0.1 µM, first compound 0.03 µM) 7.37% | viability, T/C (second compound 0.1 µM, first compound 0.0949 µM) 4.36% | viability, T/C (second compound 0.1 µM, first compound 0.3 µM) 3.26% | viability, T/C (second compound 0.316 µM, first compound 0.03 µM) 5.82% | viability, T/C (second compound 0.316 µM, first compound 0.0949 µM) 5.07% | viability, T/C (second compound 0.316 µM, first compound 0.3 µM) 3.14% | viability, T/C (second compound 1 µM, first compound 0.03 µM) 6.95% | viability, T/C (second compound 1 µM, first compound 0.0949 µM) 4.29% | viability, T/C (second compound 1 µM, first compound 0.3 µM) 3.15% | viability, T/C (second compound 3.16 µM, first compound 0.03 µM) 7.69% | viability, T/C (second compound 3.16 µM, first compound 0.0949 µM) 4.04% | viability, T/C (second compound 3.16 µM, first compound 0.3 µM) 2.84% | viability, T/C (second compound 10 µM, first compound 0.03 µM) 5.94% | viability, T/C (second compound 10 µM, first compound 0.0949 µM) 3.93% | viability, T/C (second compound 10 µM, first compound 0.3 µM) 3.41%
< 0.949 nM: IC50 (second compound 10 µM)
2.04 nM: IC50 (second compound 0.1 µM) | IC50 (second compound 0.316 µM)
1.66 nM: IC50 (second compound 3.16 µM)
inactive: viability, T/C (second compound 0.0316 µM, first compound 0.000949 µM) 79.6% | viability, T/C (second compound 0.0316 µM, first compound 0.003 µM) 34% | viability, T/C (second compound 0.0316 µM, first compound 0.00949 µM) 14.3% | viability, T/C (second compound 0.1 µM, first compound 0.000949 µM) 82.5% | viability, T/C (second compound 0.1 µM, first compound 0.003 µM) 33.7% | viability, T/C (second compound 0.1 µM, first compound 0.00949 µM) 12.5% | viability, T/C (second compound 0.316 µM, first compound 0.000949 µM) 82.5% | viability, T/C (second compound 0.316 µM, first compound 0.003 µM) 33.4% | viability, T/C (second compound 0.316 µM, first compound 0.00949 µM) 13.3% | viability, T/C (second compound 1 µM, first compound 0.000949 µM) 91.2% | viability, T/C (second compound 1 µM, first compound 0.003 µM) 33.6% | viability, T/C (second compound 1 µM, first compound 0.00949 µM) 14.8% | viability, T/C (second compound 3.16 µM, first compound 0.000949 µM) 71.5% | viability, T/C (second compound 3.16 µM, first compound 0.003 µM) 26.7% | viability, T/C (second compound 3.16 µM, first compound 0.00949 µM) 12.9% | viability, T/C (second compound 10 µM, first compound 0.000949 µM) 28.2% | viability, T/C (second compound 10 µM, first compound 0.003 µM) 19.4% | viability, T/C (second compound 10 µM, first compound 0.00949 µM) 11.2%
2.19 nM: IC50 (second compound 1 µM)

C=CC(=O)Nc1cc(Nc2nccc(-c3cn(C)c4ccccc34)n2)c(OC)cc1N(C)CCN(C)C + C=CC(=O)N1CCN(c2nc(OCC3CCCN3C)nc3c(F)c(-c4nc(N)cc(C)c4C(F)(F)F)c(Cl)cc23)C(C)C1
inactive: viability, T/C (second compound 0.00316 µM, first compound 0.00316 µM) 103% | viability, T/C (second compound 0.00316 µM, first compound 0.01 µM) 89.9% | viability, T/C (second compound 0.00316 µM, first compound 0.0316 µM) 104% | viability, T/C (second compound 0.00316 µM, first compound 0.1 µM) 104% | viability, T/C (second compound 0.00316 µM, first compound 0.316 µM) 108% | viability, T/C (second compound 0.00316 µM, first compound 1 µM) 97.1% | viability, T/C (second compound 0.01 µM, first compound 0.00316 µM) 105% | viability, T/C (second compound 0.01 µM, first compound 0.01 µM) 96.9% | viability, T/C (second compound 0.01 µM, first compound 0.0316 µM) 94.8% | viability, T/C (second compound 0.01 µM, first compound 0.1 µM) 100% | viability, T/C (second compound 0.01 µM, first compound 0.316 µM) 115% | viability, T/C (second compound 0.01 µM, first compound 1 µM) 89.5% | viability, T/C (second compound 0.0316 µM, first compound 0.00316 µM) 100% | viability, T/C (second compound 0.0316 µM, first compound 0.01 µM) 98.9% | viability, T/C (second compound 0.0316 µM, first compound 0.0316 µM) 99.4% | viability, T/C (second compound 0.0316 µM, first compound 0.1 µM) 109% | viability, T/C (second compound 0.0316 µM, first compound 0.316 µM) 108% | viability, T/C (second compound 0.0316 µM, first compound 1 µM) 94.1% | viability, T/C (second compound 0.1 µM, first compound 0.00316 µM) 99.8% | viability, T/C (second compound 0.1 µM, first compound 0.01 µM) 98.6% | viability, T/C (second compound 0.1 µM, first compound 0.0316 µM) 99.7% | viability, T/C (second compound 0.1 µM, first compound 0.1 µM) 103% | viability, T/C (second compound 0.1 µM, first compound 0.316 µM) 100% | viability, T/C (second compound 0.1 µM, first compound 1 µM) 85% | viability, T/C (second compound 0.316 µM, first compound 0.00316 µM) 98% | viability, T/C (second compound 0.316 µM, first compound 0.01 µM) 93.1% | viability, T/C (second compound 0.316 µM, first compound 0.0316 µM) 111% | viability, T/C (second compound 0.316 µM, first compound 0.1 µM) 119% | viability, T/C (second compound 0.316 µM, first compound 0.316 µM) 117% | viability, T/C (second compound 0.316 µM, first compound 1 µM) 87.8% | viability, T/C (second compound 1 µM, first compound 0.00316 µM) 106% | viability, T/C (second compound 1 µM, first compound 0.01 µM) 96.8% | viability, T/C (second compound 1 µM, first compound 0.0316 µM) 110% | viability, T/C (second compound 1 µM, first compound 0.1 µM) 112% | viability, T/C (second compound 1 µM, first compound 0.316 µM) 106% | viability, T/C (second compound 1 µM, first compound 1 µM) 87.8%
> 1000 nM: IC50 (second compound 0.00316 µM) | IC50 (second compound 0.01 µM) | IC50 (second compound 0.0316 µM) | IC50 (second compound 0.1 µM) | IC50 (second compound 0.316 µM) | IC50 (second compound 1 µM)
